Patent US4117139A, “Medicated compound for treating allergic diseases” (priority 1973, dated 1978)
Counter-ions that a name gives are not always drawn.

Tests used:
[1] = test system: bronchoconstricting action of histamine; experiment: Histamine bronchoconstriction in narcotized guinea pigs (Concette-Rossler method); type: in vivo; details: intravenous, 0.1 to 0.2 mg/kg
Excerpt: As to the mechanism of its action, the medicated compound of the present invention represents an antagonist to histamine liberated in antigen-antibody reactions.

[2] = test system: bronchospasm caused by serotonine (5-hydroxytriptamine); experiment: Bronchospasm caused by serotonine; details: in vivo
[3] = test system: bronchospasm caused by acetylcholine; experiment: Bronchospasm caused by acetylcholine; details: in vivo
[4] = test system: hypotensive activity of intravenously injected histamine; experiment: Hypotensive activity of intravenous histamine in narcotized cats; type: in vivo; details: 0.2 to 0.5 mg/kg, histamine 1 mcg/kg i.v.
[5] = test system: intoxication caused by histamine aerosol; experiment: Histamine aerosol intoxication in guinea pigs; type: in vivo; details: in the stomach, 30 to 50 mg/kg, spraying 300 seconds
[6] = test system: ophthalmic response (hyperemia and chemosis) caused by histamine; experiment: Ophthalmic response to histamine instilled into conjunctival sac of guinea pigs; type: in vivo
[7] = test system: foot edema caused by serotonin; experiment: Rat foot edema caused by subplantar serotonin; type: in vivo, rats
Excerpt: (§1) The medicated compound of the present invention irrespectively of the medication mode exerts anti-edemic antianaphylactic action.

[8] = test system: foot edema caused by formalin; experiment: Rat foot edema caused by subplantar formalin; type: in vivo, rats; details: 25 mg/kg intraperitoneally and 50 mg/kg in the stomach; formalin 0.2 ml of 2% solution; P over 0.05
Excerpt: as §1

[9] = test system: foot edema caused by dextrane; experiment: Rat foot edema caused by subplantar dextrane; type: in vivo, rats; details: 25 mg/kg intraperitoneally and 50 mg/kg in the stomach; dextrane 0.1 ml of 6% solution; P over 0.05
Excerpt: as §1

[10] = test system: chronic aseptic inflammation; experiment: Chronic aseptic inflammation by hypodermical implantation of wool balls to rats; type: in vivo; details: hypodermically, 25 mg/kg
[11] = test system: heart-vascular system, digestive tract, and excretory organs; experiment: Pharmacological and toxicological studies: heart-vascular system, digestive tract, excretory organs; details: in vivo
central nervous system [12] = experiment: Central nervous system effects in test animals; type: in vivo; details: mice, rats, rabbits, cats; different modes of administration
[13] = test system: general state and behaviour of animals; experiment: General state and behaviour after single medication; type: in vivo, mice, rats, guinea pigs, cats and dogs; details: different modes, versus dimedrol and diprasine
Acute toxicity in rats = details: rat, in vivo, po, in the stomach
[14] = Acute toxicity in guinea pigs; type: in vivo
[15] = Repeated administration to rats; type: in vivo
[16] = Embryotoxicity / teratogenicity in pregnant rats; type: in vivo; details: per os, single doses 3/4 of LD50, various periods of pregnancy
allergic diseases = experiment: Clinical test on patients suffering from allergic diseases; type: in vivo
Excerpt: (§2) The medicated compound of the present invention was clinically tested on 250 patients aging from 18 to 70 years suffering from allergic diseases for a period of from 3 months to 10 years, and treated with various anti-histamine medicines.
The treatment with the medicated compound of the present invention was effected in allergological surgeries under ambulatory and stationary conditions.
The majority of the stationary patients were hospitalized with serious, or lasting allergic responses and frequently with accompanying diseases of the heart-vascular system, and digestive tract.
(§3) The medicated compound of the present invention was used for the treatment of acute and chronic urticaria, hay fever, Quincke's oedema, dermal itch, chronic eczema, polysyndromic phenomena of intolerance (arthropathy, eosinophilia, temperature increase), dermatoblepharoconjunctivitis, and bronchial-asthma.
(§4) In the case of dermatoblepharonconjunctivitis and some other allergic ophthalmic diseases, the medicated compound of the present invention was administered per os (one tablet of 0.025 g 3 to 4 times per day).
The medicated compound of the present invention was used individually (without an additional desensibilizing therapy) per os in a dose of from 3 to 6 tablets (0.025 g each) per day, usually directed after eating.

bronchial asthma = experiment: Clinical test: bronchial asthma; type: in vivo; details: patients
Excerpt: as §2, §3

[17] = test system: dermatoblepharonconjunctivitis and some other allergic ophthalmic diseases; experiment: Clinical test: dermatoblepharoconjunctivitis and other allergic ophthalmic diseases; type: in vivo, patients
Method: as §2, §4

Clinical tolerability = type: in vivo, patients
Excerpt: as §2
However, with the patients over 60 years of age, or those weakened by accompanying serious diseases, some cases of a "seductive" effect of the medicated compound of the present invention were noticed.

central nervous system [18] = experiment: Depressive effect on the central nervous system; details: in vivo
Excerpt: The majority of modern anti-histamine medicines reveal a strong sedative effect, whereby their administration is substantially limited in the ambulatory treatment, especially in the case of persons engaged in intellectual pursuits, or persons whose occupation requires quick physical and psychic responses, e.g. drivers of transport vehicles.

Acute toxicity in mice = details: mouse, in vivo
[19] = test system: anaphylactic response caused by ovalbumin; experiment: Anaphylactic response to ovalbumin aerosol in actively sensibilized guinea pigs; details: 25 mg/kg intraperitoneally and 50 mg/kg in stomach; 25% ovalbumin aerosol, 10 minutes
[20] = Acute toxicity, diprasine, intravenous; details: intravenously
[21] = rats, in the stomach, 22 times, 1/4 of LD50

OC(c1ccccc1)(c1ccccc1)C1CN2CCC1CC2 (centres unmarked) [(quinuclidyl-3)-diphenylcarbinol hydrochloride]
bronchoconstricting action of histamine [1]: weakens, or inhibits the bronchoconstricting action of histamine | influence on bronchospasm caused by serotonine [2]: only a slight influence | influence on bronchospasm caused by acetylcholine [3]: only a slight influence | hypotensive activity of histamine [4]: prevents hypotensive activity | protection from intoxication (dispnea, apnoea, clono-tonic spasm) [5]: completely protects the animals | ophthalmic response (hyperemia and chemosis) ([6]; into the stomach, 50 mg/kg, 2% solution of histamine): prevents or substantially reduces ophthalmic response | reduction of foot edema of hind limb, serotonin ([7]; 25 mg/kg intraperitoneally and 50 mg/kg in the stomach, serotonin 5 mcg, P over 0.05): more than 2 times | anti-edemic efficiency relative to dimedrol and diprasine ([7]; rat foot edema (serotonin, formalin, dextrane)): more efficient than dimedrol, and more active than diprasine (promethasine) | reduction of foot edema of hind limb, formalin [8]: more than 2 times | reduction of foot edema of hind limb, dextrane [9]: more than 2 times | anti-inflammation effect [10]: pronounced anti-inflammationeffect | anti-inflammation effect relative to dimedrol [10]: superior over dimedrol | influence on heart-vascular system, digestive tract, and excretory organs [11]: only a relatively slight influence | action of various hypnotics (central nervous system [12]): does not extend the action of various hypnotics | influence on latent period of conditioned reflexes (central nervous system [12]): nor has it any influence | influence on spontaneous motor activity (central nervous system [12]): no influence | influence on summation ability of the central nervous system (central nervous system [12]): no influence | influence on general state and behaviour of animals [13]: to a considerably lesser extent than dimedrol (diphenhydramine) and especially diprasine (promethasine) | LD50 (Acute toxicity in rats): 440 mg/kg | absolute lethal dose [14]: 500 mg/kg | influence on general state and behaviour, peripheral blood, biochemical characteristics of blood and urina [15, 21]: no essential influence | pathomorphological changes in internal organs [15, 21]: no pathomorphological changes in internal organs | tolerance of repeated administration ([15]; relatively high doses): well tolerated by the test animals | embriotoxic or teratogenic effects [16]: does not exert any embriotoxic or teratogenic effects | efficacy in allergic diseases (allergic diseases; acute and chronic urticaria, hay fever, vasomotor rhinitis, Quincke's oedema, itching dermatosis, chronic eczema, polysyndromic phenomena of intolerance): highly efficient | efficacy in patients with developed adaptation to other anti-histamine medicines (allergic diseases; human, in vivo): efficient | time to better condition of patients (dermal eruptions and itching reduced) (allergic diseases; per os, 3 to 6 tablets (0.025 g each) per day): 3 days | efficacy in bronchial asthma (bronchial asthma): inefficient | curing action in allergic ophthalmic diseases ([17]; per os, one tablet of 0.025 g 3 to 4 times per day): satisfactory curing action | therapeutic effect with corticosteroids ([17]; simultaneous administration of corticosteroids (dexamethazone)): therapeutic effect was enhanced | tolerability (Clinical tolerability; human, in vivo): well tolerated | "seductive" effect (Clinical tolerability; patients over 60 years of age or weakened by accompanying serious diseases): some cases | discomfort (Clinical tolerability; patients with accompanying serious diseases of the digestive tract): short-time phenomena of discomfort are possible | time to disappearance of discomfort (Clinical tolerability; patients with accompanying serious diseases of the digestive tract, without cancelling or reducing dosage): 1 to 2 days | depressive effect on the central nervous system (central nervous system [18]): does not exert a depressive effect on the central nervous system | LD50 (Acute toxicity in mice; iv): 62 mg/kg | LD50 (Acute toxicity in mice; po): 370 mg/kg | antiallergic effect [19]: clearly pronounced antiallergic effect | signs of anaphylactic response / latent period [19]: increasing the latent period, or completely inhibiting signs of anaphylactic response

CN(C)CCOC(c1ccccc1)c1ccccc1 [dimedrol, diphenhydramine hydrochloride, reference compound]
effect on ophthalmic response ([6]; similar experiments, compared with the medicated compound): much less pronounced

CC(CN1c2ccccc2Sc2ccccc21)N(C)C (centres unmarked) [diprasine (promethasine), promethasine]
dose resulting in the death of half of the animals [20]: 25 mg/kg
